Reference: patent US6933304B2, “Heteroarylalkanoic acids as integrin receptor antagonists” (Pharmacia Corporation, priority 2000, dated 2005)
Counter-ions that a name gives are not always drawn.

What was measured:
[1] = molecular target: T1, αVβ3 integrin (293-β3 cells) (Homo sapiens, UniProt P05106+P06756); experiment: 293-β3 cell adhesion assay (adhesion to immobilized vitronectin); format: cell-based; conditions: 200 uM Mn2+, read-out: 293-β3 (IC50 <10 μM)
T1 construct: expressed in transfected cells; host or cells: 293 human embryonic kidney cells (293-β3)
T1 sequence (P06756 31-889 limits assumed): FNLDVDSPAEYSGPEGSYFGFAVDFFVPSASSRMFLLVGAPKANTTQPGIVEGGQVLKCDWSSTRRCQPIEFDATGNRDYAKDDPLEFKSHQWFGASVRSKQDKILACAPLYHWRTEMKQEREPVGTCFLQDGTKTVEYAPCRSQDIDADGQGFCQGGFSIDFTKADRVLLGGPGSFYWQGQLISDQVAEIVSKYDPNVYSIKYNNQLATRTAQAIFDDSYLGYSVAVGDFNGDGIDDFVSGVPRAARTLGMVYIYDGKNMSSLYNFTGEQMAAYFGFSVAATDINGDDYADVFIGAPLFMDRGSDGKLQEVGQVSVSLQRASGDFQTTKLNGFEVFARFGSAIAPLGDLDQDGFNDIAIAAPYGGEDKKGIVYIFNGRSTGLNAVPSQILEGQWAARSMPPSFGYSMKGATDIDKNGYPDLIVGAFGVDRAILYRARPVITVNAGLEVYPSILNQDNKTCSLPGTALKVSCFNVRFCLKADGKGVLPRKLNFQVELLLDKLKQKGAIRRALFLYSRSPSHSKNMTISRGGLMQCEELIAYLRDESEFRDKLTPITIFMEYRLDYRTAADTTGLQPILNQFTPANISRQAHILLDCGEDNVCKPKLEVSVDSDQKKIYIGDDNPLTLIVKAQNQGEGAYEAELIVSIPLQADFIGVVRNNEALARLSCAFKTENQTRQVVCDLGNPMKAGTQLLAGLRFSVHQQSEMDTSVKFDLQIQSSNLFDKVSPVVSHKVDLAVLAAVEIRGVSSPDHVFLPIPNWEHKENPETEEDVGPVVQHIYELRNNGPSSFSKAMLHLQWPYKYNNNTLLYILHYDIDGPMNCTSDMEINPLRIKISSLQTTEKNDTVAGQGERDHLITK
T1 sequence (P06756 891-1048 partner limits assumed): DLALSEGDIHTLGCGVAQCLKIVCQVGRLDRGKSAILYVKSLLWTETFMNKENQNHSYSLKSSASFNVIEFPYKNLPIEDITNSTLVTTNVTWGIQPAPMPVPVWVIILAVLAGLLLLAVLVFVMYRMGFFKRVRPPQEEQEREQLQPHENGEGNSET
T1 sequence (P05106 27-788): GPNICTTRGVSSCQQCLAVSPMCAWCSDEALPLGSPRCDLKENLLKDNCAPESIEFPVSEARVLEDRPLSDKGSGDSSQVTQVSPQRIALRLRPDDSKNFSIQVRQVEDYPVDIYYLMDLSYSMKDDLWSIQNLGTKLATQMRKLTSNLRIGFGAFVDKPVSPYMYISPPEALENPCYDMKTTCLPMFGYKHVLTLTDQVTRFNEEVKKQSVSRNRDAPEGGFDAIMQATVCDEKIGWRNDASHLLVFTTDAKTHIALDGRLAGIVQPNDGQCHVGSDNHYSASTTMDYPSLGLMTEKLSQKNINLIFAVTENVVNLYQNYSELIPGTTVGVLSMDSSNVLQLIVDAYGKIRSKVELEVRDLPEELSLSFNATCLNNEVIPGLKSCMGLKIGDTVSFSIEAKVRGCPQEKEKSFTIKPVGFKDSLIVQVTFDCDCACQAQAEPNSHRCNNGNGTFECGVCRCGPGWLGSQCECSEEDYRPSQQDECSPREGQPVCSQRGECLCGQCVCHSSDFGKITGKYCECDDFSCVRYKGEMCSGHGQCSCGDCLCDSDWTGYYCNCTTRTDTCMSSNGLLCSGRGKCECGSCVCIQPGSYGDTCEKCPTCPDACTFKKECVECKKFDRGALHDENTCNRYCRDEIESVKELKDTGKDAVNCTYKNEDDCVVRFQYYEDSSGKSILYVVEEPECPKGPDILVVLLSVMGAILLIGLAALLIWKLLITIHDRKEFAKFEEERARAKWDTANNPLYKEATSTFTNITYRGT
Text: While the β3 subunit of αVβ3 is only known to complex with αV or αIIb, the αV subunit complexes with multiple β subunits. The three αV integrins most homologous with αVβ3 are αVβ1, αVβ5 and αVβ6, with 43%, 56% and 47% amino acid identity in the β subunits, respectively. To evaluate the selectivity of compounds between the integrins αVβ3 and αVβ6, cell-based assays were established using the 293 human embryonic kidney cell line. 293 cells express αVβ1, but little to no detectable αVβ3 or αVβ6. cDNAs for β3 and β6 were transfected separately into 293 cells to generate 293-β3 and 293-β6 cells, respectively. High surface expression of αVβ3 and αVβ6 was confirmed by flow cytometry. Conditions were established for each cell line in which cell adhesion to immobilized human vitronectin was mediated by the appropriate integrin, as determined by a panel of integrin-specific, neutralizing monoclonal antibodies. Briefly, cells were incubated with inhibitor in the presence of 200 uM Mn^2+, allowed to adhere to immobilized vitronectin, washed, and adherent cells are detected endogenous alkaline phosphatase and para-nitrophenyl phosphate. An 8-point dose-response curve using either 10-fold or 3-fold dilutions of compound was evaluated by fitting a four-parameter logistic, nonlinear model (using SAS).

[2] = molecular target: T2, αVβ6 (HT-29 human colon carcinoma cells) (Homo sapiens, UniProt P06756+P18564); experiment: HT-29 cell adhesion assay (adhesion to immobilized LAP); format: cell-based; conditions: selectivity ratio: IC50 αVβ6 (HT-29) over IC50 β3
T2 construct: endogenous in cells; host or cells: HT-29 human colon carcinoma cells
T2 sequence (P06756 31-889 limits assumed): as the sequence (P06756 31-889 limits assumed) above
T2 sequence (P06756 891-1048 partner limits assumed): as the sequence (P06756 891-1048 partner limits assumed) above
T2 sequence (P18564 22-788): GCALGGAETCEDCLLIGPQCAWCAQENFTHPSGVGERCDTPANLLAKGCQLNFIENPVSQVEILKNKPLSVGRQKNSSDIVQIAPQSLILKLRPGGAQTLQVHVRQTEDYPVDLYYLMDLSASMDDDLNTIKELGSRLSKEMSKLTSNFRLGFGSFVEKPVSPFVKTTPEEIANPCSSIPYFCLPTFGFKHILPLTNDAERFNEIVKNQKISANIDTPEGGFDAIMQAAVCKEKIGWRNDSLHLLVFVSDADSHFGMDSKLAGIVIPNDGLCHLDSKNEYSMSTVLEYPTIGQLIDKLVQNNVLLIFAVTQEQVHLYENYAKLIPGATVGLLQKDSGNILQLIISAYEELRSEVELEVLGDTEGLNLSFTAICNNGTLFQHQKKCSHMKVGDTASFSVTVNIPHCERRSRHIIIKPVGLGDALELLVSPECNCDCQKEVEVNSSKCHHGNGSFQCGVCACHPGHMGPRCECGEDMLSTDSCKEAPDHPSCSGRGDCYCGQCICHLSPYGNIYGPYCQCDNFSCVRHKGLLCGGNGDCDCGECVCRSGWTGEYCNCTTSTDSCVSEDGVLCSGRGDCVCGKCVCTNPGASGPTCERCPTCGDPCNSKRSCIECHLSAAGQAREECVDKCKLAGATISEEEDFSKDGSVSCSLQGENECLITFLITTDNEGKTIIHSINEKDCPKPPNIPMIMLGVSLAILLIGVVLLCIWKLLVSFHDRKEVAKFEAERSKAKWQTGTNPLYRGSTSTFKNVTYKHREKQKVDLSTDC
Protocol: To evaluate compound potency for membrane-bound αVβ6 an additional cell-based adhesion assay was established using the HT-29 human colon carcinoma cell line. High surface expression of αVβ6 on HT-29 cells was confirmed by flow cytometry. Conditions were established in which cell adhesion to immobilized human latency associated peptide (LAP) was mediated by the αVβ6, as determined by a panel of integrin-specific, neutralizing monoclonal antibodies. Briefly, cells were incubated with inhibitor in the presence of 200 uM Mn^2+, allowed to adhere to immobilized LAP, washed, and adherent cells are detected by quantifying endogenous alkaline phosphatase using para-nitrophenyl phosphate. An 8-point dose-response curve using either 10-fold or 3-fold dilutions of compound was evaluated by fitting a four-parameter logistic, nonlinear model (using SAS). The compounds evaluated were relatively ineffective at inhibition of αVβ6-mediated cell adhesion. The selective antagonism of the αVβ3 integrin is viewed as desirable in this class of compounds, as αVβ6 may also play a role in normal physiological processes of tissue repair and cellular turnover that routinely occur in the skin and pulmonary tissues.

[3] = molecular target: T3, Human fibrinogen receptor (IIb/IIIa) (Homo sapiens, UniProt P05106+P08514); experiment: Purified IIb/IIIa receptor assay (solid phase receptor assay, SPRA); format: binding; conditions: selectivity ratio: IC50 αIIbβ3 (solid phase receptor assay) over IC50 β3
T3 construct: Human fibrinogen receptor (IIb/IIIa) was purified from outdated platelets; from tissue; host or cells: outdated human platelets
T3 sequence (P08514 32-887 limits assumed): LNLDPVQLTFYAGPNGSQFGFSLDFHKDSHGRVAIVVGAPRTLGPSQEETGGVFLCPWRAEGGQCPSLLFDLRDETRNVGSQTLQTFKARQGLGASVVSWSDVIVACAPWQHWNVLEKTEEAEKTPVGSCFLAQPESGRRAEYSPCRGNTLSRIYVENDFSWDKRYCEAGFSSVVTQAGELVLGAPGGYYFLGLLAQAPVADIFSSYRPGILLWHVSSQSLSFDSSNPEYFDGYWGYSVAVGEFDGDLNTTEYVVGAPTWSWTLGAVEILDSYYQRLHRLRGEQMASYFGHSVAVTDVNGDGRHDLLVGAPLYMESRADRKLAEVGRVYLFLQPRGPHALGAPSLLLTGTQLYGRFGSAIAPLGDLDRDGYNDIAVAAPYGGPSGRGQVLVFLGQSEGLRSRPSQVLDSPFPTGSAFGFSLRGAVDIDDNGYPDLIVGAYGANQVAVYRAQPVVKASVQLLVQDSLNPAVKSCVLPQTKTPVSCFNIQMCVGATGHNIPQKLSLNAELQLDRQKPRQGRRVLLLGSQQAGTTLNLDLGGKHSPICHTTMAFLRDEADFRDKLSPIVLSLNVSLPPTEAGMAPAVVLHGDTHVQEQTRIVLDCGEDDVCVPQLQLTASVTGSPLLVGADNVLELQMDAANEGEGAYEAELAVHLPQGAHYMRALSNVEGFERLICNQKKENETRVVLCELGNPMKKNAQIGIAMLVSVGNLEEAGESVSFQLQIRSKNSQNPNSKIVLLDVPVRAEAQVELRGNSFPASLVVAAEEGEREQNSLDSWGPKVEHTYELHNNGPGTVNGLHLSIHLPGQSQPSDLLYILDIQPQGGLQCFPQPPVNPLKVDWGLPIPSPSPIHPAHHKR
T3 sequence (P08514 891-1039 partner limits assumed): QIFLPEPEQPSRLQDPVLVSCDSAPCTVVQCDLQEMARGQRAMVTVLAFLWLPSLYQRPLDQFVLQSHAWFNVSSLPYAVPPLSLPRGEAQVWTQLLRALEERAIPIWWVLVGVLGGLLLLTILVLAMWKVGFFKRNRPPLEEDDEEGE
T3 sequence (P05106 27-788): as the sequence (P05106 27-788) above
Text: Human fibrinogen receptor (IIb/IIIa) was purified from outdated platelets. (Pytela, R., Pierschbacher, M. D., Argraves, S., Suzuki, S., and Rouslahti, E. “Arginine-Glycine-Aspartic acid adhesion receptors”, Methods in Enzymology 144(1987):475-489.) Human vitronectin was purified from fresh frozen plasma as described in Yatohgo, T., Izumi, M., Kashiwagi, H., and Hayashi, M., “Novel purification of vitronectin from human plasma by heparin affinity chromatography,” Cell Structure and Function 13(1988):281-292. Biotinylated human vitronectin was prepared by coupling NHS-biotin from Pierce Chemical Company (Rockford, IL) to purified vitronectin as previously described. (Charo, I. F., Nannizzi, L., Phillips, D. R., Hsu, M. A., Scarborough, R. M., “Inhibition of fibrinogen binding to GP IIb/IIIa by a GP IIIa peptide”, J. Biol. Chem. 266(3)(1991): 1415-1421.) Assay buffer, OPD substrate tablets, and RIA grade BSA were obtained from Sigma (St. Louis, Mo.). Anti-biotin antibody was obtained from Sigma (St. Louis, Mo.). Nalge Nunc-Immuno microtiter plates were obtained from (Rochester, N.Y.). ADP reagent was obtained from Sigma (St. Louis, Mo.).
This assay is essentially the same reported in Niiya, K., Hodson, E., Bader, R., Byers-Ward, V. Koziol, J. A., Plow, E. F. and Ruggeri, Z. M., “Increased surface expression of the membrane glycoprotein IIb/IIIa complex induced by platelet activation: Relationships to the binding of fibrinogen and platelet aggregation”, Blood 70(1987):475-483. The purified human fibrinogen receptor (IIb/IIIa) was diluted from stock solutions to 1.0 μg/mL in Tris-buffered saline containing 1.0 mM Ca^++, Mg^++, and Mn^++, pH 7.4 (TBS^+++). The diluted receptor was immediately transferred to Nalge Nunc-Immuno microtiter plates at 100 μL/well (100 ng receptor/well). The plates were sealed and incubated overnight at 4° C. to allow the receptors to bind to the wells. All remaining steps were at room temperature. The assay plates were emptied and 200 μL of 1% RIA grade BSA in TBS^+++ (TBS^+++/BSA) were added to block exposed plastic surfaces. Following a 2 hour incubation, the assay plates were washed with TBS^+++ using a 96 well plate washer. Logarithmic serial dilution of the test compound and controls were made starting at a stock concentration of […] and using 2 nM biotinylated vitronectin in TBS^+++/BSA as the diluent. This premixing of labeled ligand with test (or control) ligand, and subsequent transfer of 50 μL aliquots to the assay plate was carried out with a CETUS Propette robot; the final concentration of the labeled ligand was 1 nM and the highest concentration of test compound was 1.0×10^−4 M. The competition occurred for two hours after which all wells were washed with a plate washer as before. Affinity purified horseradish peroxidase labeled goat anti-biotin antibody was diluted 1:2000 in TBS^+++/BSA and 125 μL were added to each well. After 45 minutes, the plates were washed and incubated with […] substrate in 100 mM/L citrate buffer, pH 5.0. The plate was read with a microtiter plate reader at a wavelength of 450 nm and when the maximum-binding control wells reached an absorbance of about 1.0, the final A450 were recorded for analysis. The data were analyzed using a macro written for use with the EXCELJ spreadsheet program. The mean, standard deviation, and %CV were determined for duplicate concentrations. The mean A450 values were normalized to the mean of four maximum-binding controls (no competitor added)(B-MAX). The normalized values were subjected to a four parameter curve fit algorithm, [Robard et al., Int.

IC50 [1] [µM] | HT-29 β-6 Selectivity* (β6/β3) [2] | SPRA AIIbB3 Selectivity* IIbIIIa/β3 [3] | Compound
< 10 | +++ (Selectivity Ratio >100 +++) | +++ (Selectivity Ratio >100 +++) | O=C(O)C(F)(F)F.O=C(O)CC(Cc1nc(CCCCNc2ccccn2)no1)c1ccc(F)cc1 (stereo not drawn) [Example 27, 3-(4-fluorophenyl)-4-{3-[4-(pyridin-2-ylamino)butyl]-1,2,4-oxadiazol-5-yl}butanoic acid]
< 10 | +++ (Selectivity Ratio >100 +++) | +++ (Selectivity Ratio >100 +++) | O=C(O)C(F)(F)F.O=C(O)CC(Cc1nc(CCCc2ccc3c(n2)NCCC3)no1)c1cccc(C(F)(F)F)c1 (stereo not drawn) [Example 28, 4-{3-[3-(5,6,7,8-tetrahydro-1,8-naphthyridin-2-yl)propyl]-1,2,4-oxadiazol-5-yl}-3-[3-(trifluoromethyl)phenyl]butanoic acid]
< 10 | +++ (Selectivity Ratio >100 +++) | +++ (Selectivity Ratio >100 +++) | O=C(O)C(F)(F)F.O=C(O)CC(Cc1nc(CCCCNc2ccccn2)no1)c1cccc(C(F)(F)F)c1 (stereo not drawn) [Example 29, 4-{3-[4-(pyridin-2-ylamino)butyl]-1,2,4-oxadiazol-5-yl}-3-[3-(trifluoromethyl)-phenyl]butanoic acid]
< 10 | +++ (Selectivity Ratio >100 +++) | +++ (Selectivity Ratio >100 +++) | O=C(O)C(F)(F)F.O=C(O)CC(Cc1nc(CCCc2ccc3c(n2)NCCC3)no1)c1cccnc1 (stereo not drawn) [Example 32, 3-pyridin-3-yl-4-{3-[3-(5,6,7,8-tetrahydro-1,8-naphthyridin-2-yl)propyl]-1,2,4-oxadiazol-5-yl}butanoic acid]
< 10 | +++ (Selectivity Ratio >100 +++) | +++ (Selectivity Ratio >100 +++) | O=C(O)CC(Cc1nc(CCCc2ccc3c(n2)NCCC3)no1)c1ccccc1 (stereo not drawn) [Example 34, 3-phenyl-4-{3-[3-(5,6,7,8-tetrahydro-1,8-naphthyridin-2-yl)propyl]-1,2,4-oxadiazol-5-yl}butanoic acid trifluoroacetate]
< 10 | +++ (Selectivity Ratio >100 +++) | ++ (Selectivity Ratio of 10-100 ++) | O=C(O)CC(Cc1nc(CCCCNc2ccccn2)no1)c1ccccc1 (stereo not drawn) [Example 35, 3-phenyl-4-{3-[4-(pyridin-2-ylamino)butyl]-1,2,4-oxadiazol-5-yl}butanoic acid]
< 10 | +++ (Selectivity Ratio >100 +++) | +++ (Selectivity Ratio >100 +++) | CCC(C)(CC(=O)O)Cc1nc(CCCCNc2ccccn2)no1 (stereo not drawn) [Example 36, 3-methyl-3-({3-[4-(pyridin-2-ylamino)butyl]-1,2,4-oxadiazol-5-yl}methyl)pentanoic acid]
< 10 | ++ (Selectivity Ratio of 10-100 ++) | ++ (Selectivity Ratio of 10-100 ++) | O=C(O)CC1(Cc2nc(CCCCNc3ccccn3)no2)CCCCC1 [Example 37, [1-({3-[4-(pyridin-2-ylamino)butyl]-1,2,4-oxadiazol-5-yl}methyl)cyclohexyl]-acetic acid]
< 10 | +++ (Selectivity Ratio >100 +++) | +++ (Selectivity Ratio >100 +++) | CCCC(C)(CC(=O)O)Cc1nc(CCCCNc2ccccn2)no1 (stereo not drawn) [Example 38, 3-methyl-3-({3-[4-(pyridin-2-ylamino)butyl]-1,2,4-oxadiazol-5-yl}methyl)-hexanoic acid]
< 10 | ++ (Selectivity Ratio of 10-100 ++) | ++ (Selectivity Ratio of 10-100 ++) | CC(C)C(C)(CC(=O)O)Cc1nc(CCCCNc2ccccn2)no1 (stereo not drawn) [Example 39, 3,4-dimethyl-3-({3-[4-(pyridin-2-ylamino)butyl]-1,2,4-oxadiazol-5-yl}methyl)-pentanoic acid]
< 10 | ++ (Selectivity Ratio of 10-100 ++) | +++ (Selectivity Ratio >100 +++) | CCC(CC)(CC(=O)O)Cc1nc(CCCCNc2ccccn2)no1 [Example 40, 3-ethyl-3-({3-[4-(pyridin-2-ylamino)butyl]-1,2,4-oxadiazol-5-yl}methyl)-pentanoic acid]
< 10 | +++ (Selectivity Ratio >100 +++) | ++ (Selectivity Ratio of 10-100 ++) | O=C(O)CCCc1nc(CCCCNc2ccccn2)no1 [Example 41, 4-{3-[4-(pyridin-2-ylamino)butyl]-1,2,4-oxadiazol-5-yl}butanoic acid]
< 10 | +++ (Selectivity Ratio >100 +++) | +++ (Selectivity Ratio >100 +++) | CC(CC(=O)O)(Cc1nc(CCCCNc2ccccn2)no1)c1ccccc1 (stereo not drawn) [Example 42, 3-methyl-3-phenyl-4-{3-[4-(pyridin-2-ylamino)butyl]-1,2,4-oxadiazol-5-yl}-butanoic acid]
< 10 | +++ (Selectivity Ratio >100 +++) | +++ (Selectivity Ratio >100 +++) | CCC(C)(CC(=O)O)Cc1nc(CCCc2ccc3c(n2)NCCC3)no1 (stereo not drawn) [Example 43, 3-Methyl-3-{3-[3-(5,6,7,8-tetrahydro-[1,8]naphthyridin-2-yl)-propyl]-[1,2,4]oxadiazol-5-ylmethyl}-pentanoic acid]
